# Biological target: human Kv1.3 (Homo sapiens (Human), UniProt P22001)
# Assay: Kv1.3 potency evaluation, automated patch clamp electrophysiology (QPatch HT) in CHO-Kv1.3 cells
# Assay type: cell-based
# Conditions: whole-cell QPatch HT, % inhibition of charge, step to +30 mV, four concentrations, N≥3 cells, read-out: hKv1.3 IC50
# In short: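 Automated whole-cell patch clamp in CHO cells stably expressing human Kv1.3; steps from −80 to +30 mV (500 ms) at 0.067 Hz. Four cumulative concentrations after vehicle (0.1-0.3% DMSO); charge inhibition vs vehicle fitted by four-parameter logistic for IC50, N≥3 cells.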
# Chain of human Kv1.3 (P22001 whole entry): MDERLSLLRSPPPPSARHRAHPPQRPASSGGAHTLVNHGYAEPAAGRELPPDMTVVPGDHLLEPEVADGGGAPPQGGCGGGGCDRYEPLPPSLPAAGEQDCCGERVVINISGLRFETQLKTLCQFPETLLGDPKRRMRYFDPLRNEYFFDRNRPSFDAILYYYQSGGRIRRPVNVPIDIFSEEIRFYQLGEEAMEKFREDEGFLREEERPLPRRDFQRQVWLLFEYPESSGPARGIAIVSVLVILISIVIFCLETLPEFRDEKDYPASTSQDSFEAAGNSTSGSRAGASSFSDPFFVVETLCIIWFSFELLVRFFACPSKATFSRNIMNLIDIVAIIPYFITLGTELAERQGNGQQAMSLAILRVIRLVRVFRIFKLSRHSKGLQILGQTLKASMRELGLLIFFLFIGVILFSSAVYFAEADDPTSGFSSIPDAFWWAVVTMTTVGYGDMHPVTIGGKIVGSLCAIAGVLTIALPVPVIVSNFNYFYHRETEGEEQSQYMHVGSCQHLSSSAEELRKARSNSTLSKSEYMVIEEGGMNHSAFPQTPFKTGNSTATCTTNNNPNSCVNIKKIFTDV
row,SMILES,IC50 [nM]
1,CC1(C)N=C(C23CC(N(Cc4ccc(C(F)(F)F)cc4)S(=O)(=O)c4ccc(F)cc4)(C2)C3)N[C@H]1C(=O)NCCC(F)(F)F (mixture of isomers) [Example 217],167
2,CC1(C)N=C(C23CC(N(Cc4ccc(Cl)cc4)S(=O)(=O)c4cc(C(F)(F)F)ccc4O)(C2)C3)N[C@H]1C(=O)NCCC(F)(F)F (mixture of isomers) [Example 286],859
3,CC1(C)N=C(C23CC(N(Cc4ccc(Cl)cc4)S(=O)(=O)CCC4CC4)(C2)C3)N[C@H]1C(=O)NCCC(F)(F)F (mixture of isomers) [Example 67],53
4,CC1(C)N=C(C23CC(N(Cc4ccc(Cl)cc4F)S(=O)(=O)c4ccccc4)(C2)C3)N[C@H]1C(=O)NCCC(F)(F)F (mixture of isomers) [Example 9],28
5,CC1(C)N=C(C23CC(N(Cc4ccc(Cl)cc4)S(=O)(=O)c4ccccc4O)(C2)C3)N[C@H]1C(=O)NCCC(F)(F)F (mixture of isomers) [Example 180],106
6,CC1(C)N=C(C23CC(N(Cc4ccc(Cl)cc4)S(=O)(=O)c4ccccc4[N+](=O)[O-])(C2)C3)N[C@H]1C(=O)NCCC(F)(F)F (mixture of isomers) [Example 191],114
7,CN(C(=O)[C@@H]1NC(C23CC(N(Cc4ccc(Cl)c(Cl)c4)S(=O)(=O)c4ccccc4)(C2)C3)=NC1(C)C)C1CC(C(F)F)C1 (mixture of isomers) [Example 153],91
8,CC1(C)N=C(C23CC(N(Cc4ccc(Cl)c(F)c4)S(=O)(=O)c4ccccc4)(C2)C3)N[C@@H]1C(=O)NCCC(F)(F)F (mixture of isomers) [Example 146],88
9,CC1(C)N=C(C23CC(N(Cc4ccc(Cl)c(F)c4)S(=O)(=O)c4ccccc4)(C2)C3)N[C@H]1C(=O)N1CCCC1 (mixture of isomers) [Example 185],109
10,CC(F)(F)CCS(=O)(=O)N(Cc1ccc(Cl)c(Cl)c1)C12CC(C3=NC(C)(C)[C@H](C(=O)NCC(F)(F)C(F)(F)F)N3)(C1)C2 (mixture of isomers) [Example 156],92
11,CCCS(=O)(=O)N(Cc1ccc(Cl)cc1)C12CC(C3=NC(C)(C)[C@H](C(=O)NCCC(F)(F)F)N3)(C1)C2 (mixture of isomers) [Example 7],26
12,CC(C)CS(=O)(=O)N(Cc1ccc(Cl)cc1)C12CC(C3=NC(C)(C)[C@H](C(=O)NCCC(F)(F)F)N3)(C1)C2 (mixture of isomers) [Example 54],50
13,CCCS(=O)(=O)N(Cc1ccc(Cl)c(Cl)c1)C12CC(C3=NC(C)(C)[C@H](C(=O)NC4CCC(F)(F)CC4)N3)(C1)C2 (mixture of isomers) [Example 174],103
14,CC1(C)N=C(C23CC(N(Cc4ccc(Cl)c(Cl)c4)S(=O)(=O)c4ccccc4)(C2)C3)N[C@H]1C(=O)NCCC(F)(F)F (mixture of isomers) [Example 62],52
15,CC1(C)N=C(C23CC(N(Cc4ccc(Cl)c(F)c4)S(=O)(=O)c4ccccc4)(C2)C3)N[C@H]1C(=O)NCC1(F)CCC1 (mixture of isomers) [Example 36],45
16,CC1(C)N=C(C23CC(N(Cc4ccc(Cl)c(F)c4)S(=O)(=O)c4ccccc4)(C2)C3)N[C@H]1C(=O)NC12CC(C(F)(F)F)(C1)C2 (mixture of isomers) [Example 242],248
17,CC1(C)N=C(C23CC(N(Cc4ccc(Cl)cc4)S(=O)(=O)c4ccccc4)(C2)C3)N[C@H]1C(=O)NCC1CC1(F)F (mixture of isomers) [Example 51],48
18,CC1(C)N=C(C23CC(N(Cc4ccc(Cl)c(F)c4)S(=O)(=O)c4ccccc4)(C2)C3)N[C@H]1C(=O)N1CC2(CCC2(F)F)C1 (mixture of isomers) [Example 249],280
19,CC(C)NC(=O)[C@@]1(C)CN=C(C23CC(N(Cc4ccccc4)S(=O)(=O)c4ccc(F)cc4)(C2)C3)N1 (mixture of isomers) [Example 243],251
20,CC1(C)N=C(C23CC(N(Cc4cccc(Cl)c4)S(=O)(=O)c4ccccc4)(C2)C3)N[C@H]1C(=O)NCCC(F)(F)F (mixture of isomers) [Example 16],35
21,CC1(C)N=C(C23CC(N(Cc4ccc(Cl)c(F)c4)S(=O)(=O)c4ccccc4)(C2)C3)N[C@H]1C(=O)N1CCC(F)(F)CC1 (mixture of isomers) [Example 123],75
22,CC1(C)N=C(C23CC(N(Cc4ccc(Cl)cc4)S(=O)(=O)N4CCC(F)(F)C4)(C2)C3)N[C@H]1C(=O)NCCC(F)(F)F (mixture of isomers) [Example 212],149

# Further compounds by falling IC50, results first:
row,IC50 [nM],SMILES
1,2950,CC1(C)N=C(C23CC(N(Cc4ccc(Cl)cc4)S(=O)(=O)c4ccccc4C(N)=O)(C2)C3)N[C@H]1C(=O)NCCC(F)(F)F (mixture of isomers) [Example 292]
2,1120,CC1(C)N=C(C23CC(N(Cc4ccc(Cl)cc4)S(=O)(=O)c4ncc[nH]4)(C2)C3)N[C@H]1C(=O)NCCC(F)(F)F (mixture of isomers) [Example 291]
3,400,NC(=O)C1(Cc2ccccc2)CN=C(C23CC(N(Cc4ccc(C(F)(F)F)cc4)S(=O)(=O)c4ccc(F)cc4)(C2)C3)N1 (stereo not shown) [Example 263]
4,252,C[C@]1(C(=O)N2CCCCC2)CN=C(C23CC(N(Cc4ccc(C(F)(F)F)cc4)S(=O)(=O)c4ccc(F)cc4)(C2)C3)N1 (mixture of isomers) [Example 244]
5,182,CC1(C)N=C(C23CC(N(Cc4ccc(Cl)c(F)c4)S(=O)(=O)c4ccccc4O)(C2)C3)N[C@H]1C(=O)NCCC(F)(F)F (mixture of isomers) [Example 225]
6,170,CC(F)(F)CCS(=O)(=O)N(Cc1ccc(Cl)c(F)c1)C12CC(C3=NC(C)(C)[C@H](C(=O)NCC(F)(F)C(F)(F)F)N3)(C1)C2 (mixture of isomers) [Example 222]
7,163,CCCS(=O)(=O)N(Cc1ccc(Cl)c(Cl)c1)C12CC(C3=NC(C)(C)[C@H](C(=O)NCCCC(F)(F)F)N3)(C1)C2 (mixture of isomers) [Example 216]
8,143,CC(C)NC(=O)C1NC(C23CC(N(Cc4ccc(C(F)(F)F)cc4)S(=O)(=O)c4ccc(F)cc4)(C2)C3)=NC1(C)C (stereo not shown) [Example 208]
9,138,CC1(C)N=C(C23CC(N(Cc4ccc(Cl)c(Cl)c4)S(=O)(=O)c4ccccc4)(C2)C3)N[C@H]1C(=O)NCC(F)(F)C(F)(F)F [Example 5]
10,134,C[C@]1(C(=O)NCCC(F)(F)F)CN=C(C23CC(N(Cc4ccc(C(F)(F)F)cc4)S(=O)(=O)c4ccc(F)cc4)(C2)C3)N1 (mixture of isomers) [Example 202]
11,115,CC1(C)N=C(C23CC(N(Cc4ccc(C(F)(F)F)cc4)S(=O)(=O)c4ccc(F)cc4)(C2)C3)NC1C(=O)NCC1CCC1 (stereo not shown) [Example 192]
12,106,CN(CC(F)(F)C(F)(F)F)C(=O)[C@@H]1NC(C23CC(N(Cc4ccc(Cl)c(F)c4)S(=O)(=O)c4ccccc4)(C2)C3)=NC1(C)C (mixture of isomers) [Example 181]
13,98,CC1(C)N=C(C23CC(N(Cc4ccc(Cl)c(F)c4)S(=O)(=O)c4ccccc4)(C2)C3)N[C@H]1C(=O)NCC(C)(C)C(F)(F)F (mixture of isomers) [Example 163]
14,91,CC1(C)N=C(C23CC(N(Cc4ccc(Cl)cc4)S(=O)(=O)c4cccc(C(F)(F)F)c4)(C2)C3)N[C@H]1C(=O)NCCC(F)(F)F (mixture of isomers) [Example 152]
15,84,CC1(C)N=C(C23CC(N(Cc4ccc(Cl)c(Cl)c4)S(=O)(=O)CCCF)(C2)C3)N[C@H]1C(=O)NCC(F)(F)C(F)(F)F (mixture of isomers) [Example 142]
16,72,CC1(C)N=C(C23CC(N(Cc4ccc(Cl)cc4)S(=O)(=O)c4cccnc4)(C2)C3)N[C@H]1C(=O)NCCC(F)(F)F (mixture of isomers) [Example 110]
17,71,CC1(C)N=C(C23CC(N(Cc4ccc(Cl)c(F)c4)S(=O)(=O)c4ccccc4)(C2)C3)N[C@H]1C(=O)N1CCC2(CCC2)C1 (mixture of isomers) [Example 109]
18,70,CC(C)(C)CNC(=O)[C@@H]1NC(C23CC(N(Cc4ccc(Cl)c(Cl)c4)S(=O)(=O)CCC(F)F)(C2)C3)=NC1(C)C (mixture of isomers) [Example 106]
19,66,CC1(C)N=C(C23CC(N(Cc4ccc(Cl)c(F)c4)S(=O)(=O)c4ccccc4)(C2)C3)N[C@H]1C(=O)N1CCCC(F)(F)C1 (mixture of isomers) [Example 98]
20,56,CC1(C)N=C(C23CC(N(Cc4ccc(Cl)cc4)S(=O)(=O)c4cccc(C#N)c4)(C2)C3)N[C@H]1C(=O)NCCC(F)(F)F (mixture of isomers) [Example 70]
21,52,C[C@@H]1CCN(C(=O)[C@@H]2NC(C34CC(N(Cc5ccc(Cl)c(F)c5)S(=O)(=O)c5ccccc5)(C3)C4)=NC2(C)C)C1 (mixture of isomers) [Example 64]
22,49,CC1(C)N=C(C23CC(N(Cc4ccc(Cl)cc4)S(=O)(=O)c4cccc(Cl)c4)(C2)C3)N[C@H]1C(=O)NCCC(F)(F)F (mixture of isomers) [Example 52]
23,47,CC1(C)N=C(C23CC(N(Cc4ccc(Cl)c(Cl)c4)S(=O)(=O)c4ccccc4)(C2)C3)N[C@H]1C(=O)NCC1CC(F)(F)C1 (mixture of isomers) [Example 47]
24,46,CC1(C)N=C(C23CC(N(Cc4ccc(Cl)cc4)S(=O)(=O)c4ccccc4)(C2)C3)N[C@H]1C(=O)NC1CC(C(F)F)C1 (mixture of isomers) [Example 45]
25,43,CCCS(=O)(=O)N(Cc1ccc(Cl)c(Cl)c1)C12CC(C3=NC(C)(C)[C@H](C(=O)NC45CC(C4)C5)N3)(C1)C2 (mixture of isomers) [Example 32]
26,41,CC1(C)N=C(C23CC(N(Cc4ccc(Cl)c(F)c4)S(=O)(=O)c4ccccc4)(C2)C3)N[C@H]1C(=O)N1CCC12CCC2 (mixture of isomers) [Example 30]
27,28,CCCCS(=O)(=O)N(Cc1ccc(Cl)cc1)C12CC(C3=NC(C)(C)[C@H](C(=O)NCCC(F)(F)F)N3)(C1)C2 (mixture of isomers) [Example 10]

# From US12128028B2, “Heterocyclic sulfonamide derivatives and pharmaceutical uses thereof” (METRION BIOSCIENCES LIMITED, priority 2018, dated 2024)
